Measured values reported in US20050032863A1, “Method of treating or preventing central nervous system disorders with compounds having selectivity for the alpha 3 subunit of the benzodiazepine receptor” (priority 2003, published 2005).

Legend:
male Wistar rats = experiment: Rat forced swim test; type: in vivo; settings: 10 and 30 mg/kg p.o., 23, 5 and 1 h prior to testing
Method: All animals were treated with verum or vehicle three times: shortly after the habituation session (23 h), 5 and 1 h prior to testing. All drugs were administered orally with an application volume of 1 ml/kg.
The animals were tested in a glass tank (23×30 cm, height 40 cm) filled to a depth of 28 cm with water at 22° C. (the animals could not touch the bottom). The glass tank was illuminated indirectly and was surrounded by dark brown shading walls (distance from the tank 20 cm) to prevent the view on the experimenter. The experiments were performed between 14:00 and 17:00 hours and the method was in general performed as described (Porsolt et al., 1979; Lucki, 1997).
On the first experimental day, rats were gently placed in the water for a 15 min period of habituation. On removal from the water, they were placed in a standard plexiglass box, the floor covered with paper towels, under an infrared heater for 30 min to dry. The next day, they were once more placed gently in the glass tank and observed for 5 min. The behaviour of the animals was video-taped.
Following the experiment the video tapes were analysed manually and the duration of the following behaviours was recorded: Immobility: floating and making only those movements necessary to keep the nose above the water. […] Climbing: when rats strongly move their forepaws in and out of the water, usually against the walls.

[1] = test system: 5-HT release in the brain; settings: literature reports; cited from earlier work
alpha 3 receptors = alpha 3 receptors (UniProt P18508+P34903); settings: cited from earlier work
Chain of alpha 3 receptors (P34903 29-492): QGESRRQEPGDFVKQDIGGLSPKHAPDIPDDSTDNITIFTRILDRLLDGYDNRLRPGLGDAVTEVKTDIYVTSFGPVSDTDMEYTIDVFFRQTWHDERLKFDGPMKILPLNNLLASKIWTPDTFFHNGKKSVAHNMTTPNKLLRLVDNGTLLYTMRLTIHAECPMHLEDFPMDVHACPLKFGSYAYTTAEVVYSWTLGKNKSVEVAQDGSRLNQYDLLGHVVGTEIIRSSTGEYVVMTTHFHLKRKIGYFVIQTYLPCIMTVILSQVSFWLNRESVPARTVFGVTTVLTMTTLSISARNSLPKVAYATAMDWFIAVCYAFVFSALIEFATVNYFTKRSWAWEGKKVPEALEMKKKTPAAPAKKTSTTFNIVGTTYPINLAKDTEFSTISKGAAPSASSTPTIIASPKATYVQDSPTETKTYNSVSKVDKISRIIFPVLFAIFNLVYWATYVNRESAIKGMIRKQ
Chain of alpha 3 receptors (P63138 25-474 partner limits assumed): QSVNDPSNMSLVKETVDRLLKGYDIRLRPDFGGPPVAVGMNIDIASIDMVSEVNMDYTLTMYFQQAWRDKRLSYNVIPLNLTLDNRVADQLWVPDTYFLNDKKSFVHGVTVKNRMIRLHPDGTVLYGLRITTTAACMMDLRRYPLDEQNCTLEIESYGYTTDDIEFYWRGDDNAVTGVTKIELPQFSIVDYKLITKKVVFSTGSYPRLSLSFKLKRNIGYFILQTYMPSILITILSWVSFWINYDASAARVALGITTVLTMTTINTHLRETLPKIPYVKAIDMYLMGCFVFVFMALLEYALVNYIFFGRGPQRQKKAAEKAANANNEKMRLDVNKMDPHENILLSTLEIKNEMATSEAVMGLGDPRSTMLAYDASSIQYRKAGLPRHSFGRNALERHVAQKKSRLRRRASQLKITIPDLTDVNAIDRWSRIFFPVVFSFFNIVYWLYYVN
Chain of alpha 3 receptors (P18508 39-466): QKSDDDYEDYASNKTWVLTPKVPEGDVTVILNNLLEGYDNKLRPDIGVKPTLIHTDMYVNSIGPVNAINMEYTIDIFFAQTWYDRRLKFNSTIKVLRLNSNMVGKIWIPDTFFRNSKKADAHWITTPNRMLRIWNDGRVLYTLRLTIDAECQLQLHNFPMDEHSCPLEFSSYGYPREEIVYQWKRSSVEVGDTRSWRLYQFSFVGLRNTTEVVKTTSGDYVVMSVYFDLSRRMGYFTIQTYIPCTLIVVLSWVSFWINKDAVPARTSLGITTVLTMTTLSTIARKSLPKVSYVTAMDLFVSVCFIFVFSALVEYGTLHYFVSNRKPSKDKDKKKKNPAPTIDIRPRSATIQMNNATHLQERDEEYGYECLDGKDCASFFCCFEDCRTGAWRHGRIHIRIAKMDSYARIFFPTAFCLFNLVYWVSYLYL

[2] = molecular target: alpha 5 containing receptors (UniProt P18508+P31644); settings: cited from earlier work
Chain of alpha 5 containing receptors (P31644 32-462): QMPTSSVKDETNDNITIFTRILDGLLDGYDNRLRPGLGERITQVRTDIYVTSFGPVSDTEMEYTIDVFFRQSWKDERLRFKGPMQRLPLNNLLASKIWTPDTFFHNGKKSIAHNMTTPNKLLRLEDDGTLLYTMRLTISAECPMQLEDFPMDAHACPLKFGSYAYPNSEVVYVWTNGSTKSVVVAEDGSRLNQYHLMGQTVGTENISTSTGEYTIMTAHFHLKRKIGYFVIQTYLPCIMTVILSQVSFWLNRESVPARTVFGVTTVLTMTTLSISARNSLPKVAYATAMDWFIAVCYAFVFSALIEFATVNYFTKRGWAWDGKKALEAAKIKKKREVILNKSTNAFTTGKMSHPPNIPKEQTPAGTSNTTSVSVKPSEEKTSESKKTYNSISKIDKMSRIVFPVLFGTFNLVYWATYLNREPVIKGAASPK
Chain of alpha 5 containing receptors (P63079 26-473 partner): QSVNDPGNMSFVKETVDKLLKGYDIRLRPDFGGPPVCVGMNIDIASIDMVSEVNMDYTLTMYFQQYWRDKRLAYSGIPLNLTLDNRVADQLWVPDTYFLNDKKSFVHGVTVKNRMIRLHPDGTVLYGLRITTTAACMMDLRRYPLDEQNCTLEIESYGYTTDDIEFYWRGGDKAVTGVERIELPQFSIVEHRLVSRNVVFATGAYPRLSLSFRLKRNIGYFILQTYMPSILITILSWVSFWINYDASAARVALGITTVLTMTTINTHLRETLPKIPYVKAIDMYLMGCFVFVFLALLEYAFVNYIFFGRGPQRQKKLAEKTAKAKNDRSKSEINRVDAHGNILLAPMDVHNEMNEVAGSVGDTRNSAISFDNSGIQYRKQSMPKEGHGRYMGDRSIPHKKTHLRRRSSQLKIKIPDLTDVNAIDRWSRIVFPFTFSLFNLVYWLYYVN
Chain of alpha 5 containing receptors (P18508 39-466): as the sequence (P18508 39-466) above

alpha 2 receptors = alpha 2 receptors (UniProt P18508+P47869); settings: cited from earlier work
Chain of alpha 2 receptors (P47869 29-451): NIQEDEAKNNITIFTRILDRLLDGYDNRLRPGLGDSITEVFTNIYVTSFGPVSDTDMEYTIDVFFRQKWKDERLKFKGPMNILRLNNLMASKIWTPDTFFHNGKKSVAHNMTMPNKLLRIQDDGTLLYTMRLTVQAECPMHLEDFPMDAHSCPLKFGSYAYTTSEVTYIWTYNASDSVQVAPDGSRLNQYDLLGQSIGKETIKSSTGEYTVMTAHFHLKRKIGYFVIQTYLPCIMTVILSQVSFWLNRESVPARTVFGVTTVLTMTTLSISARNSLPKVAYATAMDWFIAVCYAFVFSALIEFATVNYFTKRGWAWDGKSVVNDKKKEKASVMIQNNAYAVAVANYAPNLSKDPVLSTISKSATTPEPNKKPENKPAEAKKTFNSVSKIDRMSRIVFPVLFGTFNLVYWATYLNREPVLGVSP
Chain of alpha 2 receptors (P63138 25-474 partner limits assumed): as the sequence (P63138 25-474 partner limits assumed) above
Chain of alpha 2 receptors (P18508 39-466): as the sequence (P18508 39-466) above

[3] = molecular target: alpha 1 containing receptors (UniProt P14867+P18508); settings: cited from earlier work
[4] = molecular target: T1, recombinant rat α3β2γ2 GABAA receptors (Rattus norvegicus, UniProt P20236); experiment: Whole-cell patch-clamp, modulation of GABA (EC20)-induced currents in transfected HEK 293 cells, α3β2γ2; type: cell-based
T1 construct: expressed in transfected cells; host or cells: HEK 293
T1 sequence (P20236 29-493): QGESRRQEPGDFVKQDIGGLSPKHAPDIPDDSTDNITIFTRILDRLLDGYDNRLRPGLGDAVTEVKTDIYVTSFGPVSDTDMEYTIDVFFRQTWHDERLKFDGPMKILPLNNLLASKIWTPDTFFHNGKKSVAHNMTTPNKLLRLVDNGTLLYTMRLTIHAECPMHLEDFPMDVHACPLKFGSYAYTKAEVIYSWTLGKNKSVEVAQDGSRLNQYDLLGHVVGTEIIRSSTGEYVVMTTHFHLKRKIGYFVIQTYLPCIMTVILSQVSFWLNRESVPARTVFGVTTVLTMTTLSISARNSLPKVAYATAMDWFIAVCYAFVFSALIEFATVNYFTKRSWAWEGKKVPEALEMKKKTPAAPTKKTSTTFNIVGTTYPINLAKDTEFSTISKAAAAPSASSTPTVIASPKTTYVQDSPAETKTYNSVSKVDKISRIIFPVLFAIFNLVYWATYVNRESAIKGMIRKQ
Method: (§1) For electrophysiological recording HEK-293 cells were passaged and replated on 12-mm glass coverslips located in 9.6-cm plastic dishes filled with 10 ml of Minimum Essential Medium (MEM, Gibco) supplemented with 158 mg/l sodium bicarbonate, 2 mM glutamine (Gibco), 100 U/ml penicillin-streptomycin (Gibco), and 10% foetal calf serum (Gibco). Cultures were maintained at 37° C. in a humidified […]/5% CO2 atmosphere for 2-3 days.
(§2) Transfection with recombinant rat GABAA receptors was carried out as described in detail (Korpi and Lüddens, 1993, Lüddens and Korpi, 1995b). Briefly, HEK 293 cells were transfected in triple combinations using the phosphate precipitation method with rat GABAA receptor cDNAs in eukaryotic expression vectors (Pritchett, 1990) for the α, β and γ subunits. For optimal receptor expression, final concentrations (μg vector DNA per 9.6 cm tissue culture plate) were: α1, 2; α2 4.8; α3, 1.2; α4, 10; α5, 0.8; β2, 0.4; and γ2S, 0.3. The γ2S variant is abbreviated γ2 in the remainder of the text. To identify transfected cells all subunit combinations were co-transfected with 1 μg per plate of pNI-EGFP.
(§3) Two days after transfection single coverslips containing HEK 293 cells were placed in a recording chamber mounted on the movable stage of a fluorescence microscope (Olympus IX70) and perfused with a defined saline solution containing (in mM): 130 NaCl, 5.4 KCl, 2 CaCl2, 2 MgSO4, 10 glucose, 5 sucrose, and 10 HEPES (free acid), pH adjusted to 7.35 with about 35 mM NaOH. Transfected cells were identified by their green fluorescence due to the expression of the pNI-EGFP vector and ligand-mediated membrane currents of these cells were studied in the whole-cell configuration of the patch-clamp technique (Hamil et al., 1981). Patch-clamp pipettes were pulled from hard borosilicate capillary glass (0.5 mm ID, 1.5 mm OD, Vitrex, Science Products GmbH, Hofheim, Germany) using a horizontal puller (Sutter Instruments, CA, Model P-97) in a multi-stage process.
(§4) Seal resistances >1 GΩ were routinely obtained by applying gentle suction to the pipettes. Membrane rupture was monitored electrically as an increase in capacity. Pipette capacitance, membrane capacitance, and series resistance were electronically compensated to achieve minimal capacitative transients. A series resistance compensation of >60% was regularly used.
(§5) In all cells recorded the presence of the γ2 subunit in the heteropentamere was monitored by the application of 1 μM zolpidem plus the EC20 of GABA before testing the experimental drugs.
(§6) Responses of the cells were recorded by a patch-clamp amplifier (EPC-8, HEKA-Electronic, Lambrecht, Germany) in conjunction with a standard personal computer and the pClamp 8.1 software package (Axon Instruments, Foster City, Calif.). The standard holding-potential for the cells was −40 mV. Whole cell currents were low-pass filtered by an eight-pole Bessel filter at 5 or 3 kHz before being digitised by a Digidata 1322A interface (Axon Instruments, Foster City, Calif.) and recorded by the computer at a sampling rate of at least […].
(§7) Efficacy, potency, and GABAA receptor a subunit specificity of the new compound ELB139 was tested with the whole cell configuration of the patch-clamp technique by applying increasing drug concentration together with GABA of the approximate EC20 on green fluorescing cells. BZ binding site specificity of the new compound was tested on the same cells in an identical experimental setting with additionally applying 10 μM Ro15-1788.

[5] = molecular target: T2, recombinant rat α1β2γ2 GABAA receptors (Rattus norvegicus, UniProt P62813); experiment: Whole-cell patch-clamp, modulation of GABA (EC20)-induced currents in transfected HEK 293 cells, α1β2γ2; type: cell-based
T2 construct: expressed in transfected cells; host or cells: HEK 293
T2 sequence (P62813 28-455): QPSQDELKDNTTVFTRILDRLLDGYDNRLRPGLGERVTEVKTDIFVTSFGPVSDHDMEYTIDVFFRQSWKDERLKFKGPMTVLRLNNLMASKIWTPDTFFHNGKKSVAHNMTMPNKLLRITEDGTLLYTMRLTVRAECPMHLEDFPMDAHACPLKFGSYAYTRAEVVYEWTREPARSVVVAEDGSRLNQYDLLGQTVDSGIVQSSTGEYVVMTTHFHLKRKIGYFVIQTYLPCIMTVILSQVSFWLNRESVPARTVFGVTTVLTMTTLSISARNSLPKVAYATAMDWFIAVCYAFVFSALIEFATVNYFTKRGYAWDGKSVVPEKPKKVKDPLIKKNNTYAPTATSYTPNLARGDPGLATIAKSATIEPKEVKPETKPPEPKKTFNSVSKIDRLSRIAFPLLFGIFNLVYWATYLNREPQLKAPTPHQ
Method: as §1, §2, §3, §4, §5, §6, §7

[6] = molecular target: T3, recombinant rat α5β2γ2 GABAA receptors (Rattus norvegicus, UniProt P19969); experiment: Whole-cell patch-clamp, modulation of GABA (EC20)-induced currents in transfected HEK 293 cells, α5β2γ2; type: cell-based
T3 construct: expressed in transfected cells; host or cells: HEK 293
T3 sequence (P19969 32-464 limits assumed): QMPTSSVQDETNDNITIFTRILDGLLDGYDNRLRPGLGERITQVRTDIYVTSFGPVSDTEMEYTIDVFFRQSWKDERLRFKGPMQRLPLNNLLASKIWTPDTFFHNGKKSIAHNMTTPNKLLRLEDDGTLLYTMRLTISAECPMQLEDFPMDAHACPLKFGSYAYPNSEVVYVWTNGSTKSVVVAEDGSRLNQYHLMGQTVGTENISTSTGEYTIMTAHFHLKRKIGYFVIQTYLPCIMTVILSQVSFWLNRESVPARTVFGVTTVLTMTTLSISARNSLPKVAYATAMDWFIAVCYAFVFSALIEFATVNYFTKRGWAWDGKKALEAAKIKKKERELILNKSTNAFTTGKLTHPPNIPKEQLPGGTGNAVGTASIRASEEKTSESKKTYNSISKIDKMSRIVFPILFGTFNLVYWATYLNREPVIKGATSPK
Method: as §1, §2, §3, §4, §5, §6, §7

[7] = molecular target: T4, recombinant rat α2β2γ2 GABAA receptors (Rattus norvegicus, UniProt P23576); experiment: Whole-cell patch-clamp, modulation of GABA (EC20)-induced currents in transfected HEK 293 cells, α2β2γ2; type: cell-based
T4 construct: expressed in transfected cells; host or cells: HEK 293
T4 sequence (P23576 29-451): as the sequence (P47869 29-451) above, with L88S, A174P, A330G counted along it
Method: as §1, §2, §3, §4, §5, §6, §7

[8] = molecular target: T5, recombinant rat α4β2γ2 GABAA receptors (Rattus norvegicus, UniProt P28471); experiment: Whole-cell patch-clamp, modulation of GABA (EC20)-induced currents in transfected HEK 293 cells, α4β2γ2; type: cell-based; settings: α4-containing receptors; diazepam up to 1 μM, ELB139 at all concentrations tested
T5 construct: expressed in transfected cells; host or cells: HEK 293
T5 sequence (P28471 36-552): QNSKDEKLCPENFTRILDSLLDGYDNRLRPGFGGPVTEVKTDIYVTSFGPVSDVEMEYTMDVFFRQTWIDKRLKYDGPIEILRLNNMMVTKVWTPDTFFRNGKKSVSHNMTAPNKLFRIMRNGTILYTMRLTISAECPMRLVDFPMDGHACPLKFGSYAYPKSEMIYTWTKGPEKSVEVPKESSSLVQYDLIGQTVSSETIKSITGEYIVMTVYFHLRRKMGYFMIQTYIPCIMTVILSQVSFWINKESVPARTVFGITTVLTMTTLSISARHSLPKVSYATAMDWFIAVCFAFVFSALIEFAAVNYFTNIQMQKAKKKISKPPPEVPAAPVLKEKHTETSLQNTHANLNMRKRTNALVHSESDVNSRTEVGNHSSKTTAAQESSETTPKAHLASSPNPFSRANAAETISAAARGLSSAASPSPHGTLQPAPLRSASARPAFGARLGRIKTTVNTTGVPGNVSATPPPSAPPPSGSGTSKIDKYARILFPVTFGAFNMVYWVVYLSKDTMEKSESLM
Method: as §1, §2
as §3, with “Patch-clamp pipettes were pulled from hard borosilicate capillary glass (0.5 mm ID, 1.5 mm OD, Vitrex, Science Products GmbH, Hofheim, Germany) using a horizontal puller (Sutter Instruments, CA, Model P-97) in a multi-stage process.” left out
Seal resistances >1 GΩ were routinely obtained by applying gentle suction to the pipettes. Membrane rupture was monitored electrically as an increase in capacity. […]
In all cells recorded the presence of the γ2 subunit in the heteropentamere was monitored by the application of 1 μM zolpidem plus the EC20 of GABA before testing the experimental drugs. […]

[9] = test system: female Wistar rats, MK-801-induced stereotypies, hyperactivity and ataxia; experiment: MK-801-induced psychosis-related behaviour and reversibility by flumazenil (Example 7); type: in vivo, rat
Method: Apart from the haloperidol rats which received haloperidol 30 minutes and MK-801 10 minutes prior to the test, the other test groups received haloperidol, ELB139 or vehicle 60 minutes prior to test, saline or flumazenil 20 minutes prior to test and MK-801 10 minutes prior to test.
(§8) The behaviour induced by the NMDA antagonist MK-801 is generally accepted as a rat model of psychosis. MK-801 induces stereotypies, hyperactivity and ataxia in rats after intraperitoneal administration.
Locomotor activity of the rats is recorded by the MotiTest Apparatus (TSE, Bad Homburg, Germany). The test area consisted of a squared arena (45×45 cm) with protective plexiglass walls (20 cm of height) where rats could freely move. Horizontal movements were recorded by 32 infrared photocells arranged along the bottom of each wall of the arena. Vertical movements (rearings) were recorded by a horizontal row of 32 infrared photocells 12 cm above the floor. The following parameters were measured by the computer program “ActiMot” (TSE, Bad Homburg, Germany): • 1. active time [s] • 2. total distance travelled [m]
(§9) Stereotypies, divided into stereotyped sniffing and other stereotypies, and ataxia are scored by the experimenter every five minutes for one hour (12 intervals) according to the method described by Andiné et al. (1999). The scores of the 12 intervals are added for each parameter.
The day of experiment the female rats are placed in the laboratory and receive the test compound, the reference substance or vehicle at the appropriate time prior to test. […]
(§10) At the beginning of the test the rats are placed in the centre of the squared arena of the MotiTest apparatus. Behaviour of the rats is recorded for one hour. After each run animals are removed and the boxes thoroughly cleaned and dried.

[10] = test system: female Wistar rats, MK-801-induced stereotypies, hyperactivity and ataxia; experiment: MK-801-induced behaviour, rat model of psychosis (Example 1); type: in vivo; settings: 0.5 mg/kg i.p. 1 h prior to test; MK-801 0.2 mg/kg i.p.; p<0.001
Method: as §8
Locomotor activity of the rats is recorded by the MotiTest Apparatus (TSE, Bad Homburg, Germany). The test area consisted of a squared arena ([…] with protective plexiglass walls (20 cm of height) where rats could freely move. Horizontal movements were recorded by 32 infrared photocells arranged along the bottom of each wall of the arena. Vertical movements (rearings) were recorded by a horizontal row of 32 infrared photocells 12 cm above the floor. The following parameters are measured by the computer program “ActiMot” (TSE, Bad Homburg, Germany): • active time [s] and total distance travelled [m]
as §9
The day of experiment the female rats are placed in the laboratory and receive the test compound, the reference substance or vehicle at the appropriate time prior to test. MK-801 0.2 mg/kg is intraperitoneally administered 10 minutes prior to test.
as §10

[11] = haloperidol 0.5 mg/kg i.p. + flumazenil 5 mg/kg i.p.
[12] = haloperidol 0.5 mg/kg i.p., MK-801 0.1 mg/kg i.p.

Structure (SMILES): CNCCC(Oc1ccc(C(F)(F)F)cc1)c1ccccc1 (stereo not drawn) [fluoxetine, N-methyl-γ-[4-(trifluoromethyl)phenoxy] benzenepropanamine, reference compound]
- climbing behaviour (male Wistar rats): not changed
- swimming time (male Wistar rats): increased
- time spent immobile (male Wistar rats): reduced

Structure (SMILES): NCC1(CC(=O)O)CCCCC1 [gabapentin]
- effect on 5-HT release / extracellular 5-HT in the brain [1]: decrease

Structure (SMILES): CCCC(CCC)C(=O)O [Valproate]
- effect on 5-HT release / extracellular 5-HT in the brain [1]: enhances

Structure (SMILES): NC(=O)N1c2ccccc2C=Cc2ccccc21 [Carbamazepine]
- effect on 5-HT release / extracellular 5-HT in the brain [1]: increase

Structure (SMILES): Cn1c2ccc(F)cc2c2c(C(=O)N3CCCC3)cn(-c3ccccc3)c(=O)c21 [SL651498]
- activity (alpha 3 receptors): 70%
- partial agonistic activity [2]: 40-50%
- partial agonistic activity (alpha 2 receptors): 100%
- partial agonistic activity [3]: 40-50%

Structure (SMILES): O=C1NC(=O)C(c2ccccc2)(c2ccccc2)N1 [phenytoin]
- effect on 5-HT release / extracellular 5-HT in the brain [1]: decrease

Structure (SMILES): CN1C(=O)CN=C(c2ccccc2)c2cc(Cl)ccc21 [Diazepam, reference compound]
- concentrations at which positive current modulation was observable ([4]; α3-containing receptors): below 10 nM
- Potentiation* (Diazepam) ([4]; α3β2γ2, with GABA EC20, graphically determined): 1.8 ± 0.11
- maximal positive modulation of GABA-induced current ([5]; α1-containing receptors, maximum at 30 μM (ELB139), at 1 μM (diazepam)): 2.2±0.9 fold
- Potentiation* (Diazepam) ([5]; α1β2γ2, with GABA EC20, graphically determined): 2.2 ± 0.9
- concentration at which the current was potentiated [6]: 10 nM
- maximal positive modulation of GABA-induced current ([6]; maximum at 30 μM (ELB139), at 1 μM (diazepam)): 2±0.05 fold
- Potentiation* (Diazepam) ([6]; with GABA EC20, graphically determined): 2 ± 0.05
- concentration at which positive current modulations were first measurable ([7]; α2 containing receptors): below 0.1 μM
- maximal agonism, potentiation of GABA-induced current ([7]; α2β2γ2, at 1 μM diazepam): 1.8 fold
- Potentiation* (Diazepam) ([7]; α2β2γ2, with GABA EC20, graphically determined): 1.8 ± 0.6
- modulation of GABA-induced currents (in words) [8]: no significant modulation

Structure (SMILES): O=C(CCCN1CCC(O)(c2ccc(Cl)cc2)CC1)c1ccc(F)cc1 [Haloperidol, 4-(4-[4-chlorophenyl]-4-hydroxy-1-piperidinyl)-1-(4-fluorophenyl)-1-nutanone, reference compound]
- MK-801-induced ataxia, combination with flumazenil [9, 11]: significantly reversed
- effects on activity, distance, sniffing and other stereotypies when flumazenil is added [9, 11]: not affected
- MK-801-induced ataxia ([9]; haloperidol 0.5 mg/kg i.p. alone, MK-801 0.1 mg/kg i.p.): only marginally reduced
- MK-801-increased activity [9, 12]: significantly reversed
- MK-801-increased distance travelled [9, 12]: significantly reversed
- MK-801-induced other stereotypies [9, 12]: slightly reduced
- MK-801-induced sniffing (stereotypies) [9, 12]: significantly reversed
- all symptoms induced by MK-801 [10]: significantly reduced all symptoms
